Assays:
[1] = tested on: K562 cells; test: Cell growth inhibition of K562 cells (CellTiter-Glo); type: cell-based; settings: Homo sapiens, 120 h, 5 days
Protocol: Example 24: Cell Growth Inhibition of K562 Cells
K562 cells were obtained from American Type Culture Collection (ATCC). For cell growth assay, K562 cells were seeded in 96-well plates at 1000 cells/well in 90 μl of RPM11640 growth medium containing 10% FBS and 1% Penicillin Streptomycin, and then incubated at 37° C. for 1 hour. The test compound was administered to the cells by using 1000× compound stock solution prepared in DMSO at various concentrations. 1000× compound stock solution was first diluted in culturing medium to 10×, then 10 uL compound medium was added to each well in the cell plates. After administration of the compound, the cells were then incubated at 37° C. for 5 days. Upon completion, the plates were equilibrated at room temperature for approximately 10 minutes. 100 ul of CellTiter-Glo® Reagent (Promega) was added to each well. The plates were then incubated at room temperature for 10 minutes and luminescence was recorded by EnSpire plate reader (PerkinElmer).

[2] = tested on: Phospho-ERK1/2 in DLD1 cells; test: Phospho-ERK1/2 expression inhibition in DLD1 cells; type: cell-based; settings: Homo sapiens, DLD-1, 4 hours, read-out: DLD1 pERK IC50
Protocol: Example 23: Phospho-ERK1/2 Expression Inhibition in DLD1 Cells
DLD1 cells were obtained from American Type Culture Collection (ATCC). DLD1 cells were plated in 96-well plates (VWR #10062-900, or Corning #3904) in 90 uL culture medium at a density of 15,000 cells/well in the RPM11640 growth medium containing 10% FBS and 1% Penicillin Streptomycin, and then incubated at 37° C. overnight. The following day, the test compound was administered to the cells by using 1000×x compound stock solution prepared in DMSO at various concentrations. 1000× compound stock solution was first diluted in culturing medium to 10×, then 10 uL compound medium was added to each well in the cell plates. After administration of the compound, the cells were then incubated at 37° C. for 4 hours. Upon completion, the cells were washed with PBS briefly. 150 uL/well of 4% formaldehyde was added and the plates were incubated at room temperature for 20 mins. The cells were washed with PBS briefly, and permeabilized with 150 uL/well of ice cold 100% methanol for 10 mins. The cells were washed with PBS briefly and blocked with 100 uL/well LI-COR blocking buffer for 1 hr at room temperature with gentle shaking. The cells were incubated overnight at 4° C. with 50 uL primary antibody rabbit anti-Phospho-ERK1/2 (1: 500, Cell Signaling, #4370) diluted in Intercept Blocking Buffer (LI-COR, #927-60001) containing 0.1% Tween 20. The next day, the cells were washed with 200 uL PBS containing 0.1% Tween 20, 5×5 mins at room temperature with gentle shaking, and incubated with 50 uL secondary antibody, IRDye® 800CW Goat anti-Rabbit IgG (LI-COR, #926-32211), 1:1000, in LI-COR blocking buffer with 0.2% Tween 20 for 1 hr at room temperature with gentle shaking. The cells were washed with 200 uL PBS containing 0.1% Tween 20, 5×5 mins at room temperature with gentle shaking. The cells were washed with PBS for 5 mins. 100 uL fresh PBS was added to each well and the plates were imaged on a LI-COR Odyssey CLX plate reader.

[3] = target: SOS1/KRAS-G12D (Homo sapiens (Human), UniProt Q07889); test: SOS1/KRAS-G12D binding inhibition assay (AlphaScreen); settings: GST-SOS1 and 6*His KRAS-G12D, read-out: KrasG12D/SOS1 binding IC50
Protocol: Example 22: SOS1/KRAS-G12D Binding Inhibition Assay
SOS1 binding affinity of candidate compounds was measured by monitoring the interaction of SOS1 with KRAS-G12D in the presence of the test compound. Briefly, 5 nM GST tagged SOS1 proteins (final concentration) were pre-incubated with 50 nM 6*His tagged KRAS-G12D proteins (final concentration) in an assay buffer containing 10 mM HEPES, pH 7.4, 150 mM NaCl, 1 mM DTT, 5 mM MgCl2, 0.1% Tween-20, and 0.05% BSA for 30 minutes. The test compounds in 2% DMSO (final concentration) at various concentrations were then added to the reaction mixture and incubated for another 30 minutes at 4° C. 5 ug/ml GSH AlphaScreen donor beads (PerkinElmer, 6765300) and 5 ug/ml nickel chelate (Ni-NTA) AlphaScreen acceptor beads (PerkinElmer, 6760619C) (final concentrations) were then added to the mixture. After an incubation of 2 hours at 4° C., the fluorescent signals were obtained on the EnVision® 2105 Multilabel Plate Reader (PerkinElmer).
Raw AlphaScreen data were converted to a percentage of inhibition (relative to DMSO) using the following equations: • a) For a given test compound concentration X:
Signal (X)=Signal (SOS1 & KRAS-G12D & compound)-Signal (buffer & KRAS-G12D & compound)
Percentage of inhibition at concentration X=[1−Signal (X)/Signal (DMSO)]*100% b)
The IC50 values were determined by nonlinear regression of plots of [inhibitor] vs. percentage of inhibition with variable slope, analyzed using GraphPad Prism 9.

SOS1/KRAS-G12D, sequence (Q07889 564-1049 limits assumed): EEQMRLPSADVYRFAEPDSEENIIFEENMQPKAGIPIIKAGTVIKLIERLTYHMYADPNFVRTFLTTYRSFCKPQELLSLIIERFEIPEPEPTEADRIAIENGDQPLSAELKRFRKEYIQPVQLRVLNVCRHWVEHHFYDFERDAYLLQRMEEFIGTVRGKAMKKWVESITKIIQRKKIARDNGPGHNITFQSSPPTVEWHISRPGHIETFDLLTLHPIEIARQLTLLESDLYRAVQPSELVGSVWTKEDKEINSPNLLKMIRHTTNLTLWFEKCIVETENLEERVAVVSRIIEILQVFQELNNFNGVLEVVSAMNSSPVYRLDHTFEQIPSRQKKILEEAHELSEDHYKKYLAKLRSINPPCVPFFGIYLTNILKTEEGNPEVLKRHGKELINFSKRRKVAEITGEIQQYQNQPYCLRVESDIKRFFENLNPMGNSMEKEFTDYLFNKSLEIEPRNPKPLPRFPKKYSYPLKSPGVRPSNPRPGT

| SMILES | GI50 [1] | IC50 [2] | IC50 [3] |
| --- | --- | --- | --- |
| COc1cc2nccc(N[C@H](C)c3cccc(C(F)(F)F)c3C)c2cc1N1CCN(C(=O)C2COC2)CC1 [Compound 47] | 100 to 500 nM | > 500 nM | 10 to 100 nM |
| C[C@@H](Nc1ccnc2ccc(N3CC[C@@H](O)C3)cc12)c1cccc(C(F)F)c1F [Compound 42, (R)-1-(4-(((R)-1-(3-(difluoromethyl)-2-fluorophenyl)ethyl)amino)quinolin-6-yl)pyrrolidin-3-ol] | ≤ 100 nM | ≤ 150 nM | ≤ 10 nM |
| C[C@@H](Nc1ccnc2ccc(C3CCNCC3)cc12)c1cccc(C(F)F)c1F [Compound 10, (R)-N-(1-(3-(difluoromethyl)-2-fluorophenyl)ethyl)-6-(piperidin-4-yl)quinolin-4-amine] | 100 to 500 nM | > 500 nM | 10 to 100 nM |
| CC(=O)N1C2CC1CN(c1ccc3nccc(N[C@H](C)c4cccc(C(F)(F)F)c4C)c3c1)C2 [Compound 64, 1-(3-(4-(((R)-1-(2-methyl-3-(trifluoromethyl)phenyl)ethyl)amino)quinolin-6-yl)-3,6-diazabicyclo[3.1.1]heptan-6-yl)ethan-1-one] | > 500 nM | > 500 nM | 10 to 100 nM |
| C[C@@H](Nc1ccnc2ccc(N3CC[C@@H](NC(=O)OC(C)(C)C)C3)cc12)c1cccc(C(F)F)c1F [Compound 8, tert-butyl ((R)-1-(4-(((R)-1-(3-(difluoromethyl)-2-fluorophenyl)ethyl)amino)quinolin-6-yl)pyrrolidin-3-yl)carbamate] | > 500 nM | 150 to 500 nM | 10 to 100 nM |
| C[C@@H](Nc1ccnc2ccc(N3CC[C@@H](N(C)C)C3)cc12)c1cccc(C(F)F)c1F [Compound 31, N-((R)-1-(3-(difluoromethyl)-2-fluorophenyl)ethyl)-6-((R)-3-(dimethylamino)pyrrolidin-1-yl)quinolin-4-amine] | ≤ 100 nM | > 500 nM | ≤ 10 nM |
| CC(=O)N[C@@H]1CCN(c2ccc3nccc(N[C@H](C)c4cccc(C(F)(F)F)c4C)c3c2)C1 [Compound 38, N-((R)-1-(4-(((R)-1-(2-methyl-3-(trifluoromethyl)phenyl)ethyl)amino)quinolin-6-yl)pyrrolidin-3-yl)acetamide] | > 500 nM | > 500 nM | > 100 nM |
| CO[C@]1(c2ccc3nccc(N[C@H](C)c4cccc(C(F)F)c4F)c3c2)CCN(C(=O)C2CC2)C1 [Compound 96, cyclopropyl((S)-3-(4-(((R)-1-(3-(difluoromethyl)-2-fluorophenyl)ethyl)amino)quinolin-6-yl)-3-methoxypyrrolidin-1-yl)methanone] | ≤ 100 nM | 150 to 500 nM | ≤ 10 nM |
| Cc1c([C@@H](C)Nc2ccnc3ccc(N4CC5CCC(C4)N5)cc23)cccc1C(F)(F)F [Compound 59, 6-(3,8-diazabicyclo[3.2.1]octan-3-yl)-N-((R)-1-(2-methyl-3-(trifluoromethyl)phenyl)ethyl)quinolin-4-amine] | 100 to 500 nM | > 500 nM | 10 to 100 nM |
| CC(=O)N[C@H]1CCN(c2ccc3nccc(N[C@H](C)c4cccc(C(F)(F)F)c4C)c3c2)C1 [Compound 39, N-((S)-1-(4-(((R)-1-(2-methyl-3-(trifluoromethyl)phenyl)ethyl)amino)quinolin-6-yl)pyrrolidin-3-yl)acetamide] | > 500 nM | > 500 nM | > 100 nM |
| CC(=O)N1CCN(c2ccc3nccc(N[C@H](C)c4cccc(C(F)(F)F)c4C)c3c2)CC12CC2 [Compound 70, (R)-1-(7-(4-((1-(2-methyl-3-(trifluoromethyl)phenyl)ethyl)amino)quinolin-6-yl)-4,7-diazaspiro[2.5]octan-4-yl)ethan-1-one] | 100 to 500 nM | > 500 nM | 10 to 100 nM |
| Cc1c([C@@H](C)Nc2ccnc3ccc(N4CCN(C(=O)C5CC5)CC4)cc23)cccc1C(F)(F)F [Compound 26, (R)-cyclopropyl(4-(4-((1-(2-methyl-3-(trifluoromethyl)phenyl)ethyl)amino)quinolin-6-yl)piperazin-1-yl)methanone] | 100 to 500 nM | > 500 nM | 10 to 100 nM |
| CO[C@]1(c2ccc3nccc(N[C@H](C)c4cccc(C#N)c4C)c3c2)CCN(C(C)=O)C1 [Compound 88, 3-((R)-1-((6-((S)-1-acetyl-3-methoxypyrrolidin-3-yl)quinolin-4-yl)amino)ethyl)-2-methylbenzonitrile] | 100 to 500 nM | ≤ 150 nM | 10 to 100 nM |
| CC(=O)N1CC=C(c2ccc3nccc(N[C@H](C)c4cccc(C(F)F)c4F)c3c2)C1 [Compound 97, (R)-1-(3-(4-((1-(3-(difluoromethyl)-2-fluorophenyl)ethyl)amino)quinolin-6-yl)-2,5-dihydro-1H-pyrrol-1-yl)ethan-1-one] | 100 to 500 nM | > 500 nM | 10 to 100 nM |
| CC(=O)N1CCCN(c2ccc3nccc(N[C@H](C)c4cccc(C(F)(F)F)c4C)c3c2)CC1 [Compound 62, (R)-1-(4-(4-((1-(2-methyl-3-(trifluoromethyl)phenyl)ethyl)amino)quinolin-6-yl)-1,4-diazepan-1-yl)ethan-1-one] | > 500 nM | > 500 nM | > 100 nM |
| Cc1cc(N[C@H](C)c2cccc(C(F)(F)F)c2C)c2cc(N3CCN(C(=O)C4CCOC4)CC3)ccc2n1 (stereo partly drawn) [Compound 4, (4-(2-methyl-4-(((R)-1-(2-methyl-3-(trifluoromethyl)phenyl)ethyl)amino)quinolin-6-yl)piperazin-1-yl)(tetrahydrofuran-3-yl)methanone] | 100 to 500 nM | > 500 nM | 10 to 100 nM |
| CNC1CCN(c2ccc3nccc(N[C@H](C)c4cccc(C(F)(F)F)c4C)c3c2)CC1 [Compound 28, (R)-N-(1-(2-methyl-3-(trifluoromethyl)phenyl)ethyl)-6-(4-(methylamino)piperidin-1-yl)quinolin-4-amine] | > 500 nM | > 500 nM | 10 to 100 nM |
| Cc1c([C@@H](C)Nc2ccnc3ccc(C4(F)CCN(C(=O)C(C)C)CC4)cc23)cccc1C(F)(F)F [Compound 82, (R)-1-(4-fluoro-4-(4-((1-(2-methyl-3-(trifluoromethyl)phenyl)ethyl)amino)quinolin-6-yl)piperidin-1-yl)-2-methylpropan-1-one] | 100 to 500 nM | > 500 nM | > 100 nM |
| CO[C@@]1(c2ccc3nccc(N[C@H](C)c4cccc(C(F)F)c4F)c3c2)CCN(C(C)=O)C1 [Compound 75, 1-((R)-3-(4-(((R)-1-(3-(difluoromethyl)-2-fluorophenyl)ethyl)amino)quinolin-6-yl)-3-methoxypyrrolidin-1-yl)ethan-1-one] | 100 to 500 nM | > 500 nM | ≤ 10 nM |
